Reference: BindingDB's records for doi:10.1021/cb600303y (Rutgers University, 2006)

Key:
[1] = target: T1, Gag-Pol polyprotein [600-1028,C879S]/[600-1151,C879S] (Human immunodeficiency virus 1, UniProt P03366, C879S); assay: Assay of RT RNA-Dependent DNA Polymerase (RDDP) Activity; details: pH 7.8; 37 °C
T1 construct: 600-1028; 600-1151
Experimental: HIV-1 RT RDDP activity was generally determined by a fixed time assay. Briefly, reaction mixtures contained p51/p66 RT, template-primer, and [3H]-TTP substrate. Aliquots of DMSO solutions containing the inhibitor were added such that the final DMSO concentration was < 2%. Reaction assays were incubated at 37 deg C for 10-20 min and then quenched with sodium pyrophosphate in 10% trichloroacetic acid (TCA). The samples were then filtered on Whatman 934-AH glass fiber filters and washed with 10% TCA and ethanol, and the radioactivity determined by liquid scintillation spectrometry.

[2] = target: T1, Gag-Pol polyprotein [600-1028,C879S]/[600-1151,C879S]; assay: Assay of RT RNH Activity; details: pH 8; 37 °C
Experimental: (§1) To assess the effect of inhibitors, RT RNH activity was measured using a FRET-based microplate fluorescence assay. Briefly, the RNA-DNA hybrid duplex was added to individual wells of a 96-well microplate containing test compound. Reactions were initiated by the addition of HIV-1 RT and allowed to proceed at 37 deg C for 30 min. Reactions were quenched by the addition of EDTA (0.5 M).

[3] = target: T2, Gag-Pol polyprotein [600-1028,Y787L]/[600-1151,Y787L] (Human immunodeficiency virus 1, UniProt P03366, Y787L); assay: Assay of RT RNH Activity
T2 construct: 600-1028; 600-1151
Experimental: as §1

[4] = target: T3, Gag-Pol polyprotein [600-1028,D666N,K669R,T814F,K818Q,C879S]/[600-1151,D666N,K669R,T814F,K818Q,C879S] (Human immunodeficiency virus 1, UniProt P03366, C879S/D666N/K669R/K818Q/T814F); assay: Assay of RT RNH Activity
T3 construct: 600-1028; 600-1151
Experimental: as §1

[5] = target: T4, Gag-Pol polyprotein [600-1028,Y780C]/[600-1151,Y780C] (Human immunodeficiency virus 1, UniProt P03366, Y780C); assay: Assay of RT RNH Activity
T4 construct: 600-1028; 600-1151
Experimental: as §1

[6] = target: T5, Gag-Pol polyprotein [600-1028,V705A,Y780C,C879S]/[600-1151,V705A,Y780C,C879S] (Human immunodeficiency virus 1, UniProt P03366, C879S/V705A/Y780C); assay: Assay of RT RNH Activity
T5 construct: 600-1028; 600-1151
Experimental: as §1

[7] = target: T6, Gag-Pol polyprotein [600-1028,L699I,K702N,C879S]/[600-1151,L699I,K702N,C879S] (Human immunodeficiency virus 1, UniProt P03366, C879S/K702N/L699I); assay: Assay of RT RNH Activity
T6 construct: 600-1028; 600-1151
Experimental: as §1

COc1ccc2ccccc2c1/C=N/NC(=O)c1ccc(C)cc1 [dihydroxy benzoyl naphthyl hydrazone (DHBNH) analogue, 2]
IC50 [1]: > 50000 nM | IC50 [2]: 15000 nM

COc1ccc(C(=O)N/N=C/c2c(OC)ccc3ccccc23)cc1 [dihydroxy benzoyl naphthyl hydrazone (DHBNH) analogue, 3]
IC50 [1]: > 50000 nM | IC50 [2]: 12000 nM

COc1ccc2ccccc2c1/C=N/NC(=O)c1ccc(-c2ccccc2)cc1 [dihydroxy benzoyl naphthyl hydrazone (DHBNH) analogue, 6]
IC50 [1]: 500 nM | IC50 [2]: 5000 nM

COc1ccc2ccccc2c1/C=N/NC(=O)c1ccc(Oc2ccccc2)cc1 [dihydroxy benzoyl naphthyl hydrazone (DHBNH) analogue, 7]
IC50 [1]: 400 nM | IC50 [2]: 7000 nM

COc1ccc2ccccc2c1/C=N/NC(=O)c1ccc(N(C)C)cc1 [dihydroxy benzoyl naphthyl hydrazone (DHBNH) analogue, 4]
IC50 [1]: > 50000 nM | IC50 [2]: 2000 nM

COc1ccc2ccccc2c1/C=N/NC(=O)c1ccccc1 [dihydroxy benzoyl naphthyl hydrazone (DHBNH) analogue, 1]
IC50 [1]: > 50000 nM | IC50 [2]: 15000 nM

COc1ccc2ccccc2c1/C=N/NC(=O)c1ccc(C(C)(C)C)cc1 [dihydroxy benzoyl naphthyl hydrazone (DHBNH) analogue, 5]
IC50 [1]: 2000 nM | IC50 [2]: 3000 nM

COc1ccc2ccccc2c1/C=N/NC(=O)C1CCC(c2ccc(Cl)cc2)CC1 (stereo not drawn) [dihydroxy benzoyl naphthyl hydrazone (DHBNH) analogue, 8]
IC50 [1]: 1000 nM | IC50 [2]: 7500 nM

COc1ccc2ccccc2c1/C=N/NC(=O)c1ccc(O)c(O)c1 [dihydroxy benzoyl naphthyl hydrazone (DHBNH)]
IC50 [1]: > 25000 nM | IC50 [3]: 1200 nM | IC50 [2]: 500 nM | IC50 [4]: 500 nM | IC50 [5]: 650 nM | IC50 [6]: 850 nM | IC50 [7]: 700 nM
